{
  "source": "patent US8165823B2",
  "about": "“Pamps, pathogen associated molecular patterns” (Novartis AG, priority 2005, dated 2012)",
  "key": {"[1]": {"test_system": "cells in vitro", "conditions": "cited from earlier work"}, "[2]": {"test_system": "human monocytic cell line THP-1", "test": "Cytokine production by THP-1 cells after peptide stimulation", "assay_type": "cell-based", "conditions": "for Cytokine production IL-1β / Cytokine production IL-8 / Cytokine production TNF-α: culture supernatant after 18 hours with peptide", "procedure": "(§1) For the assay, the human cells used were cultured at 1 million cells/ml in 96-well plates with the peptides in complete RPMI medium with 5% FBS. After culture for 18 hours at 37° C. and 5% CO2, the culture supernatants were measured for the cytokines generated by the cells with an Upstate multiplex cytokine kit."}, "[3]": {"test_system": "primary human peripheral blood mononuclear cells (hPBMC)", "test": "Cytokine production by primary hPBMC after peptide stimulation", "assay_type": "cell-based", "procedure": "The possible combinations of sequences included PDCGLR, PDCGLK, PDCGMR, and PDCGMK. […] Therefore, the specific peptide sequence PDCGLR, which was identified as a bacterial signature found commonly in bacterial proteins but not in Drosophila, is recognised by the human immune system as a PAMP.\nas §1"}, "[4]": {"conditions": "hPBMC #1643, culture supernatant after 18 hours with peptide"}},
  "data": [
    {"substance": "ALTTE [5-mer peptide from a bacterial fimbriae protein]", "values": [
      {"measurement": "Induction of cytokine production from cells in vitro", "setting": "[1]", "result": "shown to induce cytokine production from cells in vitro"}
    ]},
    {"substance": "PDCGLK", "values": [
      {"measurement": "Cytokine production IL-1β", "setting": "[2]", "result": 1.33, "unit": "pg/mL"},
      {"measurement": "Cytokine production IL-8", "setting": "[2]", "result": 24.29, "unit": "pg/mL"},
      {"measurement": "Cytokine production TNF-α", "setting": "[2]", "result": "<1", "unit": "pg/mL"}
    ]},
    {"substance": "PDCGLR", "values": [
      {"measurement": "Adjuvant activity, as measured by the specific production of cytokines (IL1-β, IL-8 and TNFα)", "setting": "[2]", "result": "adjuvant activity was observed"},
      {"measurement": "Cytokine production IL-1β", "setting": "[2]", "result": 11.32, "unit": "pg/mL"},
      {"measurement": "Cytokine production IL-8", "setting": "[2]", "result": 171.11, "unit": "pg/mL"},
      {"measurement": "Cytokine production TNF-α", "setting": "[2]", "result": 4.42, "unit": "pg/mL"},
      {"measurement": "Cytokine production (IL-6 and TNFα)", "setting": "[3]; hPBMC", "result": "cytokine production (IL-6 and TNFα) was also demonstrated"},
      {"measurement": "Cytokine production IL-6", "setting": "[3]; [4]", "result": 31.42, "unit": "pg/mL"},
      {"measurement": "Cytokine production TNF-α", "setting": "[3]; [4]", "result": 3.6, "unit": "pg/mL"}
    ]},
    {"substance": "PDCGMK", "values": [
      {"measurement": "Cytokine production IL-1β", "setting": "[2]", "result": 1.59, "unit": "pg/mL"},
      {"measurement": "Cytokine production IL-8", "setting": "[2]", "result": 19.28, "unit": "pg/mL"},
      {"measurement": "Cytokine production TNF-α", "setting": "[2]", "result": "<1", "unit": "pg/mL"}
    ]},
    {"substance": "PDCGMR", "values": [
      {"measurement": "Cytokine production IL-1β", "setting": "[2]", "result": 1.61, "unit": "pg/mL"},
      {"measurement": "Cytokine production IL-8", "setting": "[2]", "result": 25.71, "unit": "pg/mL"},
      {"measurement": "Cytokine production TNF-α", "setting": "[2]", "result": "<1", "unit": "pg/mL"}
    ]}
  ]
}
